The test system of data set [1] is MDA-MB-231. The data set is described as follows: In vitro cytostatic activity, MTT assay. The format is cell-based, human. The following applies: 3 h incubation with compound (0.4–100 µM), then 3 days culture in serum containing medium, three independent experiments with 4 parallel measurements. How it is done:
(§1) Cells were grown to confluency and were plated into 96-well plates with initial cell number of 5 × 10^3 per well. The cells were incubated at 37 °C for 24 h. Then, cells were treated with the compounds at 0.4–100 µM concentration range for 3 h in 200 µL as the final volume. Control cells were treated with serum free medium at 37 °C for 3 h. After the incubation, the cells were washed with serum free medium twice. To analyze the in vitro cytostatic effect, cells were further cultured for 72 h in serum containing medium. Then, the MTT assay was performed to measure the IC50 values. […] The cells were incubated for 4 h. Then, the plates were centrifuged at 900× g for 5 min, and the supernatant was discarded. To dissolve the formed purple crystals, 100 µL of DMSO was added, and the absorbance was determined at λ = 540 nm and 620 nm using ELISA plate reader (iEMS Reader, Labsystems, Finland). To measure the percentage of cytostasis, the following equation was used for calculation: Cytostatic effect (%) = [1 − (ODtreated/ODcontrol)] × 100; where ODtreated and ODcontrol correspond to the optical densities of the treated and untreated cells, respectively. In each case, three independent experiments were carried out with 4 parallel measurements. […] The curves were defined using MicrocalTM Origin (version 9.2) software: cytostasis was plotted as a function of concentration, fitted to a sigmoidal curve, and based on this curve, the IC50 value was determined.
A general note: Tetrazolium dyes change colour on reduction, which living cells bring about.

For data set [2], the system named is MCF-7. The data set is described as follows: In vitro cytostatic activity, MTT assay. The following applies: 3 h incubation with compound (0.4–100 µM), then 3 days culture in serum containing medium, three independent experiments with 4 parallel measurements. The format is cell-based, human. How it is done:
as §1

The subject of data set [3] is MDA-MB-231 cells. The experiment in a line: Effect of endocytosis inhibitors on cellular uptake (flow cytometry). It counts as cell-based, human. The following applies: then Cf-labelled peptide conjugate 5 µM, 90 min, 37 °C; for Effect of EIPA on uptake: EIPA 50 µM pretreatment 30 min; for Effect of CPZ on uptake: chlorpromazine (CPZ) 30 µM pretreatment 30 min; for Effect of COL on uptake: colchicine (COL) 20 µM pretreatment 30 min. From the text: Several endocytic routes can be used by CPPs for entry, which then determine their intracellular fate. […] The following inhibitors were applied: 5-(N-ethyl-N-isopropyl)amiloride (EIPA) as […] [39], chlorpromazine (CPZ) to inhibit clathrin-mediated endocytosis, methyl-beta-cyclodextrin (CyD) to deplete cholesterol from the lipid rafts, and thus to inhibit caveolae-mediated endocytosis. Finally, colchicine (COL) was used to ascertain if microtubules are involved in the uptake of the peptides as this agent inhibits microtubule formation.
The effect of inhibitors was studied in the same manner but with pretreatment by an inhibitor for 30 min, and subsequently treated with a peptide conjugate at 5 µM. The cells were then incubated for 90 min at 37 °C. Macropinocytosis was inhibited using 5-(N-Ethyl-N-isopropyl)amiloride (EIPA), clathrin-mediated endocytosis with chlorpromazine (CPZ), colchicine (Col) to assess the role of microtubules, and methyl-β-cyclodextrin (CyD) for the inhibition of caveolae/lipid-raft-mediated endocytosis.
Figure 8 Effect of endocytosis inhibitors on the cellular uptake of peptide conjugates. MDA-MB-231 cells were pretreated with inhibitors EIPA (50 µM), CPZ (30 µM), CyD (5 mM) and COL (20 µM) for 30 min, the cells were then treated with the peptide conjugates (5 µM) for 90 min. Significant difference from control was measured using student’s t test (* p <0.05, ** p < 0.01and **** p< 0.0001).
(Flow cytometry measures light scatter and fluorescence of single cells or particles in a stream.)

Data set [4] relates to MDA-MB-231 cells. The data set is described as follows: Effect of ATP depletion (NaN3 and DOG) on cellular uptake (flow cytometry). The format is cell-based, human. The settings on record: NaN3 10 mM and DOG 5 mM pretreatment 30 min, then peptide conjugate 5 µM, 90 min, 37 °C. How it is done: In order to inhibit all pathways of endocytosis, MDA-MB-231 cells were pretreated with sodium azide (NaN3) (10 mM) and 2-Deoxyglucose (DOG) (5 mM) for 30 min and the peptide was added to the wells. The cells were then incubated for 90 min at 37 °C.
Figure 9 Effect of endocytosis inhibitors on the cellular uptake of peptide conjugates. MDA-MB-231 cells were pretreated with NaN3 (10 mM) and DOG (5 mM) for 30 min, the cells were then treated with the peptide conjugates (5 µM) for 90 min. Significant difference from control was measured using Student’s t test (* p < 0.05 and ** p < 0.01).

Data set [5] deals with MDA-MB-231 cells. The experiment in a line: Cellular uptake of fluorescently labelled peptides by flow cytometry. The format is cell-based, human. The settings on record: 90 min, flow cytometry after trypsin treatment.
Procedure: Cellular uptake of peptides was measured using flow cytometry on MCF-7 and MDA-MB-231 cells. Cells were treated with the fluorescently labelled peptides at 1, 5 and 10 µM concentrations for 90 min at 37 °C.
To study the cellular uptake of fluorophore-labelled peptides, 10^5 cells per well were plated on 24-well plates. Cells were incubated for 24 h at 37 °C, followed by treatment with the peptides at different concentrations, in serum-free medium for different time intervals. For negative control, cells were treated with serum-free medium. After the incubation, the peptide solutions were removed and 100 µL trypsin (0.25%) was added for 5–10 min to remove membrane bound peptides and detach the adherent cells from the plates. […] The fluorescence intensity of cells was quantified by flow cytometer (BD LSR II, BD Bioscience, San Jose, CA, USA). Data were analyzed with FACSDiVa 5.0 software.
Cells were treated with 1, 5 and 10 µM peptide solution for 90 min. The fluorescence intensity of the cells was determined by flow cytometry after trypsin treatment. […]
Cells were treated with 1, 5 and 10 µM peptide solutions for 90 min. The fluorescence intensity of the cells was determined by flow cytometry after trypsin treatment.
The test system of data set [6] is MCF-7. The following applies: 3 h incubation, 3 days culture, MTT assay; cited from earlier work. From the text: Table 3 Cytostatic activity of peptide/drug conjugates on MCF-7 and MDA-MB-231. | column: IC50 ±SD (µM) ^a / MCF-7
The test system of data set [7] is MDA-MB-231. The settings on record: 3 h incubation, 3 days culture, MTT assay; cited from earlier work. The text has this: Table 3 Cytostatic activity of peptide/drug conjugates on MCF-7 and MDA-MB-231. | column: IC50 ±SD (µM) ^a / MDA-MB-231

Where two headings read alike, the source gives them in different places. Starred links: 1 amine or outer side, 2 acyl side, 3 side chain; linkers in the order of their positions; H or OH if unused. Non-standard residues stand in square brackets, D forms with d. Residues, ends and D or L forms follow the SMILES beside them. Groups on a side chain read outwards from the residue. *: point of attachment. Daunorubicin = COc1cccc2c1C(=O)c1c(O)c3c(c(O)c1C2=O)C[C@@](O)(C(C)=O)C[C@@H]3O[C@H]1C[C@H](N*)[C@H](O)[C@H](C)O1; Dabcyl = CN(C)c1ccc(N=Nc2ccc(C(=O)*)cc2)cc1; X1 = O=C(c1ccc2cc(N[*:1])ccc2c1)[*:2]; Suc = O=C(CCC(=O)[*:2])[*:1]; 4Amb = NCc1ccc(C(=O)O)cc1; 4Abz = Nc1ccc(C(=O)O)cc1 Where only a bound is given, the exact number is not on record here.

The IC50 is the midpoint of a concentration-inhibition curve.

For the compound `COc1cccc2c1C(=O)c1c(O)c3c(c(O)c1C2=O)C[C@@](O)(C(C)=O)C[C@@H]3O[C@H]1C[C@H](NC(=O)CCC(=O)NCCCC[C@H](NC(=O)[C@H](CCCNC(=N)N)NC(=O)[C@H](CCCNC(=N)N)NC(=O)[C@H](CCCNC(=N)N)NC(=O)[C@H](CCCNC(=N)N)NC(=O)c2ccc(CNC(=O)c3ccc(N=Nc4ccc(N(C)C)cc4)cc3)cc2)C(N)=O)[C@H](O)[C@H](C)O1` [Dabcyl-AMBA-Arg-Arg-Arg-Arg-Lys(DauSuc)] ({Dabcyl-4Amb}-RRRRK([Suc-Daunorubicin])-NH2), the half-maximal inhibitory concentration (IC50) in the data set on MDA-MB-231 [1] came to 10.1 ± 6 µM; with MCF-7 [2], 10.3 ± 5 µM.

As for Dabcyl-PABA-RRRRK, in the data set on MDA-MB-231 cells [3], the “Effect of EIPA on uptake” value is listed as “did not alter the internalization”, the “Effect of CPZ on uptake” value is given as “did not cause any inhibition” and the “Effect of COL on uptake” value is given as “did not cause any inhibition”. The “Uptake after pretreatment with NaN3 and DOG” value in the data set with MDA-MB-231 cells [4] is recorded as “significantly lower”. Also, the “Uptake relative to Arg8” value with MDA-MB-231 cells [5] (CY5-labelled peptide, at all concentrations (1, 5 and 10 µM)) fell in the range of 3 to 4.5 folds. For the same compound, the Relative uptake intensity with MDA-MB-231 cells [5] (Cf-labelled peptide, 10 µM, 37 °C, fluorescence intensity relative to Dabcyl-RRWRRK(Cf) at 10 µM (100%)) is on record as 340%.

Take `COc1cccc2c1C(=O)c1c(O)c3c(c(O)c1C2=O)C[C@@](O)(C(C)=O)C[C@@H]3O[C@H]1C[C@H](NC(=O)CCC(=O)NCCCC[C@H](NC(=O)[C@H](CCCNC(=N)N)NC(=O)[C@H](CCCNC(=N)N)NC(=O)[C@H](CCCNC(=N)N)NC(=O)[C@H](CCCNC(=N)N)NC(=O)c2ccc3cc(NC(=O)c4ccc(N=Nc5ccc(N(C)C)cc5)cc4)ccc3c2)C(N)=O)[C@H](O)[C@H](C)O1` [Dabcyl-NAPH- Arg-Arg-Arg-Arg-Lys(DauSuc)] (Dabcyl-[X1]RRRRK([Suc-Daunorubicin])-NH2): the figures for the IC50 with MDA-MB-231 [1] and in the data set on MCF-7 [2] were 16.6 ± 0.5 µM and 15 ± 4.2 µM, respectively.

For the compound Dabcyl-AMBA-RRRRK, in the data set with MDA-MB-231 cells [3], the “Effect of EIPA on uptake” value is on record as “decreased the uptake”, the “Effect of CPZ on uptake” value is on record as “did not cause any inhibition” and the “Effect of COL on uptake” value was “did not cause any inhibition”. The “Uptake after pretreatment with NaN3 and DOG” value in the data set with MDA-MB-231 cells [4] is “significantly lower”.

With Succinylated daunomycin [DauSuc], the concentration for half-maximal inhibition (IC50) is 24.5 ± 7.1 µM in the data set on MCF-7 [6] and > 100 µM with MDA-MB-231 [7].

In the case of Dabcyl-Trp-Arg-Arg-Arg-Arg-Lys(MTX), the IC50 is 36.9 ± 3 µM with MCF-7 [6] and 7.4 ± 2.2 µM in the data set with MDA-MB-231 [7].

As to Dabcyl-Trp-Arg-Arg-Arg-Arg-Lys(DauSuc), the IC50 was 26.4 ± 4.2 µM with MCF-7 [6] and 18 ± 6.7 µM in the data set on MDA-MB-231 [7].

As for `COc1cccc2c1C(=O)c1c(O)c3c(c(O)c1C2=O)C[C@@](O)(C(C)=O)C[C@@H]3O[C@H]1C[C@H](NC(=O)CCC(=O)NCCCC[C@H](NC(=O)[C@H](CCCNC(=N)N)NC(=O)[C@H](CCCNC(=N)N)NC(=O)[C@H](CCCNC(=N)N)NC(=O)[C@H](CCCNC(=N)N)NC(=O)c2ccc(NC(=O)c3ccc(N=Nc4ccc(N(C)C)cc4)cc3)cc2)C(N)=O)[C@H](O)[C@H](C)O1` [Dabcyl-PABA- Arg-Arg-Arg-Arg-Lys(DauSuc)] ({Dabcyl-4Abz}-RRRRK([Suc-Daunorubicin])-NH2), the IC50 is 14.3 ± 1.1 µM with MDA-MB-231 [1] and 17.7 ± 1.2 µM in the data set with MCF-7 [2].

For `CN(Cc1cnc2nc(N)nc(N)c2n1)c1ccc(C(=O)N[C@@H](CCC(=O)O)C(=O)O)cc1` [MTX, methotrexate], the half-inhibitory concentration (IC50) was 0.8 ± 0.3 µM in the data set on MCF-7 [6] and > 100 µM in the data set on MDA-MB-231 [7].
